Experimental data as given in article PMC7544095, “Human ABCB1 with an ABCB11-like degenerate nucleotide binding site maintains transport activity by avoiding nucleotide occlusion” (PLoS Genetics, 2020).
Where two headings read alike, the source gives them in different places.

Key:
[1] = biological target: T1, ABCB1 E556M (catalytic glutamate mutant) (Homo sapiens, UniProt P08183, E556M); experiment: MgATP dependent UIC2 binding in permeabilized NIH 3T3 cells (apparent nucleotide affinity); type: cell-based
T1 construct: expressed in transfected cells
Protocol: (§1) NIH 3T3 cells (1 × 10^7 cells/ml) were treated with 300 U/ml streptolysin O (SLO, Sigma-Aldrich, Budapest) in the presence of 10 mM DL-Dithiothreitol (DTT), protease inhibitor cocktail (Sigma-Aldrich, Budapest, Hungary) and 100 μg/ml phenylmethanesulfonyl fluoride (PMSF) in phosphate-buffered saline (PBS) containing 1% fetal bovine serum (FBS-PBS) at 37°C for 30 min, allowing permeabilization of approximately 60–80% of the cells (judged by propidium iodide (PI) staining). The reaction was stopped with 10 ml ice-cold FBS-PBS and the cells were centrifuged for 5 min at 525 × g at 4°C. Unbound toxin was removed by washing the cells 3 times with FBS-PBS and the cell pellet was re-suspended in FBS-PBS.
(§2) Apparent affinity of nucleotide binding (KA) was determined as it is described in Barsony et al.. Briefly, MgATP was added in a broad concentration range to permeabilized cells (1 × 10^6 cells/ml) in the presence or absence of 0.5 mM vanadate (Vi) for 30 min at 37°C. Then the samples (without washing) were further incubated with 10 μg/ml UIC2-A647 mAb for another 30 min at 37°C. Following antibody labeling, samples were washed 3 times with ice-cold FBS-PBS and re-suspended in ice-cold FBS-PBS containing 3 μg/ml PI. The UIC2-A647 fluorescence intensity of the PI positive cells was measured by flow cytometry and plotted as a function of the nucleotide concentration. To determine the apparent affinity of ABCB1 to the nucleotides (KA) data points were fitted with the four-parameter Hill function, where Fmin and Fmax values are the minimum and maximum fluorescence intensities.

[2] = biological target: T2, ABCB1 quadruple mutant (S474E, E556M, G1178R, Q1180E) (Homo sapiens, UniProt P08183, E556M/G1178R/Q1180E/S474E); experiment: as above; type: cell-based
T2 construct: expressed in transfected cells
Protocol: as §1, §2

wild-type ABCB1 [3] = biological target: T3, wild-type ABCB1 (Homo sapiens, UniProt P08183); experiment: as above; type: cell-based
T3 construct: expressed in transfected cells
Protocol: as §1, §2

ABCB1 = tested on: ABCB1; parameters: method as in PMID 11121420; conditions: reported values; read-out: KM for ATP hydrolysis; cited from earlier work
[4] = biological target: T1, ABCB1 E556M (catalytic glutamate mutant); experiment: Hoechst 33342 and calcein-AM accumulation assay in NIH 3T3 cells (transport activity factor); type: cell-based
Protocol: (§3) For measurement of the transport activity of the mutant ABCB1 variants a cell based Hoechst 33342 and calcein-AM accumulation assay was used. Cells (5 × 10^5 ml^-1) in gl-HEPES (20 mM HEPES, 123 mM NaCl, 5 mM KCl, 1.5 mM MgCl2, 1 mM CaCl2, 7 mM glucose) for Hoechst 33342 assay or in gl-PBS for calcein-AM assay were pre-incubated in the presence or absence of specific ABCB1 inhibitor (tariquidar (1 μM)) for 10 min at 37°C and then were loaded with different concentrations of Hoechst 33342 (5.0, 1.0, 0.5, 0.1 and 0.025 μM) and calcein-AM (0.5, 0.25, 0.1, 0.05 and 0.025 μM) for 30 min. The samples were washed with ice-cold HEPES or PBS buffer containing 0.5% FBS at 300 × g for 5 min and were kept on ice until flow cytometric measurement. Dead cells were excluded from the analysis on the basis of PI staining. The transport activity of the ABCB1 variants was described by the Transport Activity Factor (TAF) calculated according to the following formula: TAF = (MFinh−MFI0)/MFIinh, wherein MFIinh and MFI0 are the mean fluorescence intensity values measured in the presence and absence of ABCB1 inhibitor, respectively.
(§4) Intracellular Hoechst 33342 and calcein accumulation was measured using a Becton Dickinson FACSAria III Cell Sorter (Becton Dickinson, Mountain View, CA, USA). Hoechst 33342 was excited with a 365 nm UV laser and the emitted blue light was detected using a 445/40 band pass filter. Calcein was excited with a 488 nm blue laser and fluorescence was detected using a 502 long pass dichroic mirror and a 530/20 band pass filter. PI was excited by the 562 nm line of a solid-state laser and the emitted light was detected applying a 590 nm dichroic mirror and a 595/50 nm band-pass filter.

[5] = biological target: T2, ABCB1 quadruple mutant (S474E, E556M, G1178R, Q1180E); experiment: as above; type: cell-based
Protocol: as §3, §4

wild-type ABCB1 [6] = biological target: T3, wild-type ABCB1; experiment: as above; type: cell-based; conditions: wild-type ABCB1 expressing cells, 30 min, 37°C
Protocol: as §3, §4

T1 sequence (P08183 whole entry E556M): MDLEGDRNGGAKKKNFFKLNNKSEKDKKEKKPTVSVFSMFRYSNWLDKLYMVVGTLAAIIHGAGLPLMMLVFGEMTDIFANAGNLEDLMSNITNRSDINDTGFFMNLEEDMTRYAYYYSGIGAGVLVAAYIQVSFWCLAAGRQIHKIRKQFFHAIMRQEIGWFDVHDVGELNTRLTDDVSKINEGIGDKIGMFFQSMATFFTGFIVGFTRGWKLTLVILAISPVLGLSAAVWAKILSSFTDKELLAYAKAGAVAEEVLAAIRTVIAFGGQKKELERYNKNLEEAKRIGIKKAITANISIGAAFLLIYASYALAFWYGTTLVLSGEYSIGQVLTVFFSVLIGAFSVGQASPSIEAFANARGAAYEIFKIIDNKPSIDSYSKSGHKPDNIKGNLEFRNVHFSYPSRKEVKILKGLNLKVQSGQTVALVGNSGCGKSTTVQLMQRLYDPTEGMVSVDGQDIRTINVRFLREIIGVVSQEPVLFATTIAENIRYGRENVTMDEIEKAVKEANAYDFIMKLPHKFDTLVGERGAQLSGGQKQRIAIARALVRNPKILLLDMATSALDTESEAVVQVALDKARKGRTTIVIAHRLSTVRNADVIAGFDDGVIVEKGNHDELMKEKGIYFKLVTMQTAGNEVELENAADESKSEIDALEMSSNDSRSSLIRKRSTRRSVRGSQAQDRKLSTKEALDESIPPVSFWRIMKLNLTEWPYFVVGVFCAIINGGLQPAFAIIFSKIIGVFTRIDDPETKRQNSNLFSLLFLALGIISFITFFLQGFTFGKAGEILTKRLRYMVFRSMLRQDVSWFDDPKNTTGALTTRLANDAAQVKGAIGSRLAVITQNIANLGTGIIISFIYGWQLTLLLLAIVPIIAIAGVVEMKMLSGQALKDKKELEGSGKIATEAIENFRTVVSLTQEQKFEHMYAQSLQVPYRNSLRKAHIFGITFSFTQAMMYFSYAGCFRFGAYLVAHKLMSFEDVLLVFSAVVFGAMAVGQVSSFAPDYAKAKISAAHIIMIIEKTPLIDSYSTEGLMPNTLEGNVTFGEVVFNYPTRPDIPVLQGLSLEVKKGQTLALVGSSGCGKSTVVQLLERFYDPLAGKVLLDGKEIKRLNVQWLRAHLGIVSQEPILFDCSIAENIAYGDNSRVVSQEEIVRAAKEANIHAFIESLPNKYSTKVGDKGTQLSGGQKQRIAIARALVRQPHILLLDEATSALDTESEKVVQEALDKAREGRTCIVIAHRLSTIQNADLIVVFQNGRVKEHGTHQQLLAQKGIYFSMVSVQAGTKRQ
T3 sequence (P08183 whole entry): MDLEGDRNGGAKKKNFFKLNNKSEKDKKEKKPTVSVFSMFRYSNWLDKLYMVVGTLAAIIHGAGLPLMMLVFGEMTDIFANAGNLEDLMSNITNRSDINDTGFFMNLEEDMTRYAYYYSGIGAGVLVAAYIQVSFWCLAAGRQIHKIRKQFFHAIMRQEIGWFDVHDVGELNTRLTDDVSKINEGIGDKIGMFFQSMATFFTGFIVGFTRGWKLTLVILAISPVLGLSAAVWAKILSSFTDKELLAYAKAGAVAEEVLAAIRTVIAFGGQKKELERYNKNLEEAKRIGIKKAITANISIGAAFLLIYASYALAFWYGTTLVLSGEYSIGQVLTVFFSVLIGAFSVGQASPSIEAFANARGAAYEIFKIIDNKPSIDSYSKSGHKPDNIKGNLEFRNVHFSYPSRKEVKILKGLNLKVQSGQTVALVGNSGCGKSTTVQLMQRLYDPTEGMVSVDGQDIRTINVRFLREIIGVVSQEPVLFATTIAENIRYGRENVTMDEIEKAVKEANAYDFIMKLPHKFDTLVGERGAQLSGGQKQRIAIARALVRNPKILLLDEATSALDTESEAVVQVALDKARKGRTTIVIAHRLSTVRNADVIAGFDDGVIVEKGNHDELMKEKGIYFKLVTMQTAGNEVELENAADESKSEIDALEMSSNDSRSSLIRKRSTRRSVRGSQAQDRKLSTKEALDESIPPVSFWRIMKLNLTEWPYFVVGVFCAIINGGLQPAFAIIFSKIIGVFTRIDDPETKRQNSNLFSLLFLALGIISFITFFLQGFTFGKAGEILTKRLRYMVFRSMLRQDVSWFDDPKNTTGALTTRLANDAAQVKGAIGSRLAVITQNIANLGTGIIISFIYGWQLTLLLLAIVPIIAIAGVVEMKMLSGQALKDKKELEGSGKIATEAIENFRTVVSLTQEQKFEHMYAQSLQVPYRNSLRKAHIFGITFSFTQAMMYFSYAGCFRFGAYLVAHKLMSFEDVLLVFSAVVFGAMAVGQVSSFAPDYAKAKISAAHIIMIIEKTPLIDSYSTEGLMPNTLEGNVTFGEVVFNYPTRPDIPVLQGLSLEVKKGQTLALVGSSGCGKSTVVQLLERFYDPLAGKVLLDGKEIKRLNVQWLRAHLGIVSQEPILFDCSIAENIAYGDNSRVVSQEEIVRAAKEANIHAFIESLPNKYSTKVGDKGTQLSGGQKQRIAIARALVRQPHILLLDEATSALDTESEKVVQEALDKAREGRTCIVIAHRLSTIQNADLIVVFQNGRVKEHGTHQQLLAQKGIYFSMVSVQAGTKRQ
T2 sequence (P08183 whole entry S474E/E556M/G1178R/Q1180E): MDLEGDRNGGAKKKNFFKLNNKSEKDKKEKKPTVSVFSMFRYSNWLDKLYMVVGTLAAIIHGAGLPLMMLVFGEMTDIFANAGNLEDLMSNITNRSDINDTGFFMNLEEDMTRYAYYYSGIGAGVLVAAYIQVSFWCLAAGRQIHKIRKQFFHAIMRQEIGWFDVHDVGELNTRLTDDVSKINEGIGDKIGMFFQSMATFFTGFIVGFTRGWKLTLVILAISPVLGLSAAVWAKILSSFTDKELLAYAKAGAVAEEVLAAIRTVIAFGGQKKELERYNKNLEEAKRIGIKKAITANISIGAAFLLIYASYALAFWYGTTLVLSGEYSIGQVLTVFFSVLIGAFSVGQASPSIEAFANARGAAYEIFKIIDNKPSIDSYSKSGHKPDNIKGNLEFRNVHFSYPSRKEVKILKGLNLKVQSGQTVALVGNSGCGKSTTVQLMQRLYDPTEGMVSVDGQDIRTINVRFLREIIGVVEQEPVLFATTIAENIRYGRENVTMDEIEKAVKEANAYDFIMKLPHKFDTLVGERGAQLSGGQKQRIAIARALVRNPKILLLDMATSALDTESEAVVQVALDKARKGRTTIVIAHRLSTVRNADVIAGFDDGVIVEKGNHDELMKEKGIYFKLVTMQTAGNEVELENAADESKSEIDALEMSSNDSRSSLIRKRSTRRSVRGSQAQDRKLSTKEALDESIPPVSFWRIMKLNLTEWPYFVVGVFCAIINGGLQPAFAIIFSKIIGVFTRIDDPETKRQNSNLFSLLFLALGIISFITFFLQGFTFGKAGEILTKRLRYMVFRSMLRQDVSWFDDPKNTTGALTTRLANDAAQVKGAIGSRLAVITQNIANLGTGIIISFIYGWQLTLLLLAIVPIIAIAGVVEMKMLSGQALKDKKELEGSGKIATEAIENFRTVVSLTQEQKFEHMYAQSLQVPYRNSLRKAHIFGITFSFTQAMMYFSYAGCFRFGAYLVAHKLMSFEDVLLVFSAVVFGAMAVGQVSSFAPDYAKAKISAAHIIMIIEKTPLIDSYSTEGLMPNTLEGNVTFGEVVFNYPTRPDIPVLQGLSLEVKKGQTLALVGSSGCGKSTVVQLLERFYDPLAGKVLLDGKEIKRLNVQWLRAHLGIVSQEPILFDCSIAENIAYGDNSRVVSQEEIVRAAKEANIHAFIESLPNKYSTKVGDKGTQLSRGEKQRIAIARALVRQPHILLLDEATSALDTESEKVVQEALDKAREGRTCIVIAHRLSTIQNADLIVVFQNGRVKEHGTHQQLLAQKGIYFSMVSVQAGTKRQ

Compound: Nc1ncnc2c1ncn2[C@@H]1O[C@H](COP(=O)(O)OP(=O)([O-])OP(=O)([O-])O)[C@@H](O)[C@H]1O.[Mg+2] [MgATP]
- apparent affinity of ATP (KA) ([1]; absence of Vi): 0.077 ± 0.02 mM
- apparent affinity of ATP (KA) with Vi ([1]; treatment with 0.5 mM Vi): 0.027 ± 0.001 mM
- apparent affinity for MgATP/Vi (KA) ([2]; 0.5 mM Vi): 0.038 ± 0.001 mM
- apparent affinity for MgATP (KA) ([2]; absence of Vi): 1.12 ± 0.6 mM
- apparent affinity (KA) lower than reported KM (wild-type ABCB1 [3]; wild-type ABCB1, KA vs reported KM): 3–4 fold
- apparent affinity of MgATP (KA) (wild-type ABCB1 [3]; wild-type ABCB1, absence of vanadate, UIC2 binding readout, 37°C): 1.56 ± 0.46 mM
- Km (ABCB1): 300 to 500 µM

Compound: O=C(O)CN(CC(=O)O)Cc1cc2c(cc1O)Oc1cc(O)c(CN(CC(=O)O)CC(=O)O)cc1C21OC(=O)c2ccccc21 [calcein]
- transport activity [4]: abolished transport activity
- difference in transport activity factor between wild type and quadruple mutant [5]: two-fold difference
- intracellular accumulation / efflux by ABCB1 [5]: able to limit

Compound: CCOc1ccc(-c2nc3ccc(-c4nc5ccc(N6CCN(C)CC6)cc5[nH]4)cc3[nH]2)cc1 [Hoechst 33342]
- transport activity ([4]; E556M expressing cells): abolished transport activity
- intracellular accumulation / efflux by ABCB1 ([5]; quadruple mutant expressing cells): able to limit
- difference in transport activity factor between wild type and quadruple mutant ([5]; wild type vs quadruple mutant): two-fold difference
- intracellular accumulation / efflux by ABCB1 (wild-type ABCB1 [6]): effectively prevented intracellular accumulation
